Source: US7329655B2, “Nitrogenous heterocyclic compounds” (Millennium Pharmaceuticals, Inc., priority 2000, dated 2008)

Columns and labels:
human β-PDGFR = biological target: T1, human β-PDGFR (Homo sapiens, UniProt P09619); assay: HR5 phosphorylation assay; format: cell-based; conditions: HR5 cells (CHO overexpressing human β-PDGFR), 8 nM PDGF BB; inhibition of PDGF receptor phosphorylation
T1 construct: host or cells: CHO cells (HR5 line)
Protocol: The HR5 cell line is a cell line of CHO cells engineered to overexpress human β-PDGFR, which cell line is available from the ATCC. The expression level of β-PDGFR in HR5 cells is around 5×10^4 receptor per cell. For the phosphorylation assay according to the invention, HR5 cells were grown to confluency in 96-well microtiter plates under standard tissue culture conditions, followed by serum-starvation for 16 hours. Quiescent cells were incubated at 37° C. without or with increasing concentrations of the test compound (0.01-30 uM) for 30 minutes followed by the addition of 8 nM PDGF BB for 10 minutes. Cells were lysed in 100 mM Tris, pH 7.5, 750 mM NaCl, 0.5% Triton X-100, 10 mM sodium pyrophosphate, 50 mM NaF, 10 ug/ml aprotinin, […] leupeptin, 1 mM phenylmethylsulfonyl fluoride, 1 mM sodium vanadate, and the lysate was cleared by centrifugation at 15,000×g for 5 minutes. Clarified lysates were transferred into a second microtiter plate in which the wells were previously coated with 500 ng/well of 1B5B11 anti-β-PDGFR mAb, and then incubated for two hours at room temperature. […] Wells were washed prior to adding ABTS (Sigma), and the rate of substrate formation was monitored at 650 nm. […]

endogenous β-PDGFR = biological target: T2, endogenous β-PDGFR (Homo sapiens, UniProt P09619); assay: MG63 phosphorylation assay; format: cell-based; conditions: MG63 human osteosarcoma cells, PDGF-BB stimulation in the presence of 45% human plasma; inhibition of PDGF receptor phosphorylation; read-out: MG63 w/human plasma IC50
T2 construct: This assay is for measuring endogenous β-PDGFR phosphorylation in MG63 cells; host or cells: MG63 human osteosarcoma cells
T2 sequence (P09619 33-1106): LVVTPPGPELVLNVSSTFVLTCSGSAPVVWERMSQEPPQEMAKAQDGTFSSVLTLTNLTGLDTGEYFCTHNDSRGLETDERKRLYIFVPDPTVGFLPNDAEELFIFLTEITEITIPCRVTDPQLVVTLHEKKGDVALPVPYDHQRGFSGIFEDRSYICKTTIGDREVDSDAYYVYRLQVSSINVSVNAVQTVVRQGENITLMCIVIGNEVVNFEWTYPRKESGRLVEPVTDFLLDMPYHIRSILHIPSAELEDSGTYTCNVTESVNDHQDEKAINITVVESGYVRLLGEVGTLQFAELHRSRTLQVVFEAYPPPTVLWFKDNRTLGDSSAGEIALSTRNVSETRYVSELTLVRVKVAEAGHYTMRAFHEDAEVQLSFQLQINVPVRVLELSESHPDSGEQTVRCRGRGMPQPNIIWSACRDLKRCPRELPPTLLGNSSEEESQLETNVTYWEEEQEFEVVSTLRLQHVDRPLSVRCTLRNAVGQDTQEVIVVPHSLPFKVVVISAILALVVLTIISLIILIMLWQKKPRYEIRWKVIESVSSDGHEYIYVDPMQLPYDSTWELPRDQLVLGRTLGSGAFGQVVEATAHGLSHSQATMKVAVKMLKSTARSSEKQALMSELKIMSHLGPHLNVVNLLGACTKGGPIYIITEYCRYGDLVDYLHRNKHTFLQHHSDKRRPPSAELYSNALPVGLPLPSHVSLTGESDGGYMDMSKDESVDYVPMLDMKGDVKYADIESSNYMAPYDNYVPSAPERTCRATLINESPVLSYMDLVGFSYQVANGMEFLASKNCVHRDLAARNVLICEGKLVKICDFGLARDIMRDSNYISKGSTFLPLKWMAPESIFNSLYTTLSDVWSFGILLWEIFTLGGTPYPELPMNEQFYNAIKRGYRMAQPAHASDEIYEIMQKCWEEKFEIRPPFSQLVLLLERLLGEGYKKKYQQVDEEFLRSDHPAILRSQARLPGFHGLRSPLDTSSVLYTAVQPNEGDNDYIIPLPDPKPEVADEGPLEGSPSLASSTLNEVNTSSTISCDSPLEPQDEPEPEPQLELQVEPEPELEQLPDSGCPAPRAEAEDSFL

T1 sequence (P09619 33-1106): as above

Compound | IC50 (human β-PDGFR) [nM] | IC50 (endogenous β-PDGFR) [nM]
COc1cc2c(N3CCN(C(=S)NCc4ccc5c(c4)OCO5)CC3)ncnc2cc1OCCN1CCCCC1 [Example 1] | 50 | 129
COc1cc2c(N3CCN(C(=S)NCc4cnc(C)cn4)CC3)ncnc2cc1OCCN1CCCCC1 [Example 2, {4-[6-methoxy-7-(2-piperidylethoxy)quinazolin-4-yl]piperazinyl}{[(5-methylpyrazin-2-yl)methyl]amino}methane-1-thione] | 20 | 47
